Results: US8367086B1, “Process and product for inhibiting or preventing bacterial infections” (S.S. Steiner, Inc., priority 2004, dated 2013)
Positions of bridges follow the written chain, without caps; N, C: chain ends. Non-standard residues stand in square brackets, D forms with d. Residues, ends and D or L forms follow the SMILES beside them. *: point of attachment. Ileψ(thiazoline)Cys = CC[C@H](C)[C@H](N)C1=N[C@H](C(=O)*)CS1; dOrn = NCCC[C@@H](N)C(=O)O

Columns and labels:
Assay type in all cases: cell-based
[1] = system: Staphlococcus saprophyticus; test: paper disc diffusion susceptibility (Kirby-Bauer) method; details: for change of zone of inhibition when lupulone was added: Experiment 1, 0.2 μg/ml β-resin versus antibiotic alone; for zone of inhibition, Experiment 1 Control / zone of inhibition, Experiment 2 Control: antibiotic disc alone; for zone of inhibition, Experiment 1 Control / zone of inhibition, Experiment 2 Control / zone of inhibition, Experiment 1 0.2 μg/ml β-resin / zone of inhibition, Experiment 2 0.2 μg/ml β-resin: 24 hours; for zone of inhibition, Experiment 1 0.2 μg/ml β-resin / zone of inhibition, Experiment 2 0.2 μg/ml β-resin: antibiotic disc with 0.2 μg/ml β-resin in the agar; for zone of inhibition, Xanthohumol Avg / zone of inhibition, Xanthohumol Expt #1 / zone of inhibition, Xanthohumol Expt #2 / zone of inhibition, β-acid Avg / zone of inhibition, β-acid Exp #1: S. saprophyticus, tobramycin 10 μg on disc
Source text: (§1) The first test method to be applied was the paper disc diffusion susceptibility method. In this method a filter paper disc impregnated with a chemical is placed on agar, and the chemical will diffuse from the disc into the agar. If an organism is placed on the agar, it will not grow in the area around the disc if it is susceptible to the chemical. This area of no growth around the disc is known as the zone of inhibition. This disc diffusion method for antibiotic susceptibility is known as the Kirby-Bauer method. In testing the effectiveness of various antibiotics, all factors, e.g., the agar utilized, the depth of the agar, the amount of organism used, and incubation conditions, are maintained constant for the various organisms and antibiotics being tested. […] The size of the zone of inhibition of the particular antimicrobial substance may also be influenced by the diffusion capability of that substance.
(§2) In performing the disc diffusion method tests, a bacterial suspension having an inoculum density of approximately 1×10^8 CFU/ml (colony forming units) was added to 10 ml trypticase soy agar at 46° C. It was mixed thoroughly by vortexing and then poured into a plastic Petri dish. After hardening of the agar, filter paper discs (φ7 mm.) made from Whatman filter paper No. 1 that had been impregnated by the manufacturer, Becton Dickinson, Inc., with the suitable antibiotic, were placed on the agar. In this series of tests the ability of each antibiotic per se to control the growth of the bacteria was measured.
(§3) Another series of agar containing Petri dishes was then prepared using the same bacteria and density thereof as had been prepared for the prior test series. However, here hop compounds were also present in the agar. The hop extract, either lupulone, humulone or xanthohumol, was dissolved in ethanol. While certain of the hop components are only slightly soluble in water, they are very soluble in ethanol. An ethanol control was prepared in the same way.
(§4) The size of the inhibition zones was measured to the nearest mm.
(§5) The concentration of β-acid and xanthohumol is set forth in μg/ml. The zone of inhibition was measured in centimeters. […]

[2] = system: S. salivarius; test: paper disc diffusion susceptibility method; details: tobramycin 10 μg on disc
Source text: as §1, §2, §3, §4, §5

[3] = system: B. subtilis; test: paper disc diffusion susceptibility method; details: tobramycin 10 μg on disc
Source text: as §1, §2, §3, §4, §5

[4] = system: B. megaterium; test: paper disc diffusion susceptibility method; details: tobramycin 10 μg on disc
Source text: as §1, §2, §3, §4, §5

`O=C(N[C@H](CO)[C@H](O)c1ccc([N+](=O)[O-])cc1)C(Cl)Cl` [CHLORAMPHENICOL, chloramphenicol] was tested, and the “change of zone of inhibition when lupulone was added” value (“change of zone of inhibition” for short) [1] was “decline”, the “zone of inhibition, Experiment 1 Control” value [1] was 29 mm and the “zone of inhibition, Experiment 2 Control” value [1] was 25 mm. The “zone of inhibition, Experiment 1 0.2 μg/ml β-resin” value [1] was 27 mm and the “zone of inhibition, Experiment 2 0.2 μg/ml β-resin” value [1] was 25 mm.

`[H]/N=C(/N)N[C@H]1[C@H](O)[C@@H](O)[C@H](O[C@@H]2O[C@@H](C)[C@](O)(C=O)[C@H]2O[C@@H]2O[C@@H](CO)[C@H](O)[C@@H](O)[C@@H]2NC)[C@@H](N/C(N)=N\[H])[C@@H]1O` [STREPTOMYCIN, streptomycin] was tested, and the “change of zone of inhibition” value [1] was “remained constant”, the “zone of inhibition, Experiment 1 Control” value [1] was 15 mm and the “zone of inhibition, Experiment 2 Control” value [1] was 15 mm. The “zone of inhibition, Experiment 1 0.2 μg/ml β-resin” value [1] was 15 mm and the “zone of inhibition, Experiment 2 0.2 μg/ml β-resin” value [1] was 14 mm.

With `NC[C@H]1O[C@H](O[C@H]2[C@H](O)[C@@H](O[C@H]3O[C@H](CO)[C@@H](O)[C@H](N)[C@H]3O)[C@H](N)C[C@@H]2N)[C@H](N)C[C@@H]1O` [tobramycin] the “zone of inhibition, Xanthohumol Avg” value ([1]; xanthohumol 0 μg/ml) was 0.95 centimeters, the “zone of inhibition, Xanthohumol Expt #1” value ([1]; xanthohumol 0 μg/ml) was 0.9 centimeters and the “zone of inhibition, Xanthohumol Expt #2” value ([1]; xanthohumol 0 μg/ml) was 1.0 centimeters. For the same compound, the “zone of inhibition, Xanthohumol Avg” value ([1]; xanthohumol 3 μg/ml) was 1.5 centimeters, the “zone of inhibition, Xanthohumol Expt #1” value ([1]; xanthohumol 3 μg/ml) was 1.5 centimeters and the “zone of inhibition, Xanthohumol Expt #2” value ([1]; xanthohumol 3 μg/ml) was 1.5 centimeters. The “zone of inhibition, β-acid Avg” value ([1]; β-acid 0 μg/ml) was 0.9 centimeters, the “zone of inhibition, β-acid Exp #1” value ([1]; β-acid 0 μg/ml) was 0.9 centimeters and the “zone of inhibition, β-acid Avg” value ([1]; β-acid 3 μg/ml) was 1.6 centimeters. The “zone of inhibition, β-acid Exp #1” value ([1]; β-acid 3 μg/ml) was 1.6 centimeters, the “zone of inhibition, Xanthohumol Avg” value ([2]; xanthohumol 0 μg/ml) was 0.55 centimeters and the “zone of inhibition, Xanthohumol Expt #1” value ([2]; xanthohumol 0 μg/ml) was 0.6 centimeters. For the same compound, the “zone of inhibition, Xanthohumol Expt #2” value ([2]; xanthohumol 0 μg/ml) was 0.5 centimeters, the “zone of inhibition, Xanthohumol Avg” value ([2]; xanthohumol 10 μg/ml) was 1.35 centimeters and the “zone of inhibition, Xanthohumol Expt #1” value ([2]; xanthohumol 10 μg/ml) was 1.4 centimeters. For the same compound, the “zone of inhibition, Xanthohumol Expt #2” value ([2]; xanthohumol 10 μg/ml) was 1.3 centimeters, the “zone of inhibition, β-acid Avg” value ([2]; β-acid 0 μg/ml) was 0.55 centimeters and the “zone of inhibition, β-acid Exp #1” value ([2]; β-acid 0 μg/ml) was 0.6 centimeters. For the same compound, the “zone of inhibition, β-acid Exp #2” value ([2]; β-acid 0 μg/ml) was 0.5 centimeters, the “zone of inhibition, β-acid Avg” value ([2]; β-acid 30 μg/ml) was 0.65 centimeters and the “zone of inhibition, β-acid Exp #1” value ([2]; β-acid 30 μg/ml) was 0.7 centimeters. The “zone of inhibition, β-acid Exp #2” value ([2]; β-acid 30 μg/ml) was 0.6 centimeters, the “zone of inhibition, Xanthohumol Avg” value ([3]; xanthohumol 0 μg/ml) was 1.0 centimeters and the “zone of inhibition, Xanthohumol Expt #1” value ([3]; xanthohumol 0 μg/ml) was 1.1 centimeters. The “zone of inhibition, Xanthohumol Expt #2” value ([3]; xanthohumol 0 μg/ml) was 0.9 centimeters, the “zone of inhibition, Xanthohumol Avg” value ([3]; xanthohumol 3 μg/ml) was 1.5 centimeters and the “zone of inhibition, Xanthohumol Expt #1” value ([3]; xanthohumol 3 μg/ml) was 1.6 centimeters. For the same compound, the “zone of inhibition, Xanthohumol Expt #2” value ([3]; xanthohumol 3 μg/ml) was 1.4 centimeters, the “zone of inhibition, β-acid Avg” value ([3]; β-acid 0 μg/ml) was 1.0 centimeters and the “zone of inhibition, β-acid Exp #1” value ([3]; β-acid 0 μg/ml) was 1.1 centimeters. The “zone of inhibition, β-acid Exp #2” value ([3]; β-acid 0 μg/ml) was 0.9 centimeters, the “zone of inhibition, β-acid Avg” value ([3]; β-acid 3 μg/ml) was 1.3 centimeters and the “zone of inhibition, β-acid Exp #1” value ([3]; β-acid 3 μg/ml) was 1.4 centimeters. The “zone of inhibition, β-acid Exp #2” value ([3]; β-acid 3 μg/ml) was 1.2 centimeters, the “zone of inhibition, Xanthohumol Avg” value ([4]; xanthohumol 0 μg/ml) was 0.7 centimeters and the “zone of inhibition, Xanthohumol Expt #1” value ([4]; xanthohumol 0 μg/ml) was 0.8 centimeters. For the same compound, the “zone of inhibition, Xanthohumol Expt #2” value ([4]; xanthohumol 0 μg/ml) was 0.6 centimeters, the “zone of inhibition, Xanthohumol Avg” value ([4]; xanthohumol 3 μg/ml) was 1.05 centimeters and the “zone of inhibition, Xanthohumol Expt #1” value ([4]; xanthohumol 3 μg/ml) was 1.1 centimeters. For the same compound, the “zone of inhibition, Xanthohumol Expt #2” value ([4]; xanthohumol 3 μg/ml) was 1.0 centimeters, the “zone of inhibition, β-acid Avg” value ([4]; β-acid 0 μg/ml) was 0.7 centimeters and the “zone of inhibition, β-acid Exp #1” value ([4]; β-acid 0 μg/ml) was 0.8 centimeters. The “zone of inhibition, β-acid Exp #2” value ([4]; β-acid 0 μg/ml) was 0.6 centimeters, the “zone of inhibition, β-acid Avg” value ([4]; β-acid 3 μg/ml) was 0.95 centimeters and the “zone of inhibition, β-acid Exp #1” value ([4]; β-acid 3 μg/ml) was 1.1 centimeters. For the same compound, the “zone of inhibition, β-acid Exp #2” value ([4]; β-acid 3 μg/ml) was 0.8 centimeters.

With `CC[C@H](C)[C@H](N)C1=N[C@H](C(=O)N[C@@H](CC(C)C)C(=O)N[C@H](CCC(=O)O)C(=O)N[C@H](C(=O)N[C@H]2CCCCNC(=O)[C@H](CC(N)=O)NC(=O)[C@@H](CC(=O)O)NC(=O)[C@H](Cc3cnc[nH]3)NC(=O)[C@@H](Cc3ccccc3)NC(=O)[C@H]([C@@H](C)CC)NC(=O)[C@@H](CCCN)NC2=O)[C@@H](C)CC)CS1` [BACITRACIN, bacitracin] ({Ileψ(thiazoline)Cys}-L[dE]IK[dOrn]I[dF]H[dD]N; lactam 4-C) the “change of zone of inhibition” value [1] was “remained constant”, the “zone of inhibition, Experiment 1 Control” value [1] was 0 mm and the “zone of inhibition, Experiment 2 Control” value [1] was 0 mm. For the same compound, the “zone of inhibition, Experiment 1 0.2 μg/ml β-resin” value [1] was 0 mm and the “zone of inhibition, Experiment 2 0.2 μg/ml β-resin” value [1] was 0 mm.
